Reference: patent US20210000912A1, “Compositions And Methods For Prophylaxis Or Treatment Of Pain” (Interk Peptide Therapeutics Limited, priority 2017, published 2021)
Entries after “also recorded” stand apart in the source; their conditions may differ.

Tests used:
CFA-injected mice [1] = assay: Grip strength testing in CFA study; type: in vivo, C57Bl/6 mice; conditions: intra-peritoneal, CFA study
Method: Forepaw grip strength was determined using a grip strength meter (DFIS-2 series digital force gauge, Columbus Instruments, Columbus, Ohio). The animals' forelimbs were placed on a horizontal bar connected to a force gauge. The animal was the gently pulled away from the bar and the peak force required for a release was recorded. Each mouse was tested 3 times, with a 1 min inter-trial interval (Martinez-Huenchullan, S. F., et al., “Utility and reliability of non-invasive muscle function tests in high-fat-fed mice”. Experimental Physiology, 2017. 102(7): p. 773-778). The average peak tension (g), and tension normalised to body weight were compared.

CFA-injected mice [2] = assay: CFA inflammatory pain model, incapacitance testing

In the case of CN1CC[C@]23c4c5ccc(O)c4O[C@H]2[C@@H](O)C=C[C@H]3[C@H]1C5 [morphine], the “grip strength compared to vehicle control” value (CFA-injected mice [1]) is reported as “increased grip strength”, the “effectiveness in incapacitance test, morphine versus IK01400, pooled data” value (CFA-injected mice [2]; first 30 minutes after injection) is reported as “more effective” and the hyperactivity (CFA-injected mice [2]; mice, intra-peritoneal) is reported as “observed to induce hyperactivity”. For the same compound, the “effectiveness in incapacitance test, morphine versus IK01400 (8.6 mg/kg)” value (CFA-injected mice [2]; second hour after administration) was “less effective than IK01400; also recorded: reduced”.
